Source: patent US9594073B2, “Test solvent for evaluating the compatibility of biologically active substances and graft copolymers” (ABBVIE DEUTSCHLAND GMBH & CO KG, priority 2010, dated 2017)

Assay: Homogeneity of melt extrudates with Soluplus (optical microscope)
Assay type: physicochemical
Method: Samples were prepared by melt extrusions of mixtures consisting of fenofibrate or ibuprofen and Soluplus®. […] Aliquots of 50 g of the powdery mixtures were extruded on a laboratory extruder (Rondol l (10 mm) Rondol Technology Ltd. Staffordshire GB) using a conveying screw equipped with two kneading elements at about 120° C. and 100 rpm. The powdery mixtures were continuously metered in via a vibratory feeder. The extrudate exiting the extruder was passed through a calendar with two smooth rollers arranged at a gap distance of 0.4 mm. Calendered sheets having a thickness of about 1 mm were thus obtained. Pieces of 2 mm×2 mm were cut out from the sheets and homogeneity of the pieces was examined using an optical microscope (Leica DMLM).

Amount of crystals in extrudate (ibuprofen concentration 40 wt %): no crystals | Amount of crystals in extrudate (ibuprofen concentration 45 wt %): no crystals | Amount of crystals in extrudate (ibuprofen concentration 50 wt %): low | Amount of crystals in extrudate (ibuprofen concentration 55 wt %): moderate | Amount of crystals in extrudate (ibuprofen concentration 60 wt %): high
Compound: CC(C)Cc1ccc(C(C)C(=O)O)cc1 (centres unmarked) [ibuprofen]
